# Assay results reported in US6521640B1, “Method for interviewing neuronal death using sulfasalazine” (Neurotech Co., Ltd., priority 2000, dated 2003).
# What was measured:
# [1] = tested on: cocultures of cortical neurons and glia; assay: Fe2+-induced free radical neuronal death (LDH); type: cell-based, mouse; details: 50 μM Fe2+; 30-300 μM sulfasalazine concurrent
# Experimental: FIG. 6 is a graph plotting a dose-response effect of sulfasalazine against neuronal death following 24 hr-exposure to 50 μM Fe^2+. […] Neuronal death was assessed 24 hr later by measurement of LDH released into the bathing medium, means ± S.E.M. (n=4 12 culture wells per condition). Asterisk indicates significant difference from relevant control (Fe^2+ alone) at ρ<0.05, using ANOVA and Student-Neuman-Keuls' test.
# (§1) Primary cortical cell cultrues from embryonic mice were prepared and used to examine neuroprotective action of compounds. Mouse cortical cell culture system has been extensively used to study mechanisms and pharmacological intervention of neuronal death in neurological diseases. In brief, mouse cerebral coritces were removed from brains of the 15 day—old—fetal mice, in accordance with a protocol approved by our institutional animal care committee. The neocortices were gently triturated and plated on 24 well plates (5 hemispheres/plate) precoated with 100 μg/ml poly-D-lysine and 4 μg/ml laminine. […]
# (§2) Overall cell injury was assessed microscopically under phase-contrast optics or by measuring amount of lactate dehydrogenase (LDH) released into the bathing medium 24 hr after neurotoxic insults as previously described (Koh and Choi, J Neurosci Methods 20:83-90, 1987). […]
# [2] = tested on: cocultures of cortical neurons and glia; assay: BSO-induced free radical neuronal death (LDH); type: cell-based, mouse; details: 10 mM BSO; 30-300 μM sulfasalazine concurrent
# Experimental: FIG. 7 is a graph plotting a dose-response effect of sulfasalazine against neuronal death following 24 hr-exposure to 10 mM BSO. Cortical cell cultures (DIV 12-14) were exposed to 10 mM L-buthionine-(S,R)-sulfoximine (BSO), alone or with 30-300 μM sulfasalazine. Neuronal death was assessed 24 hr later by measurement of LDH released into the bathing medium, mean ± SEM (n=8 culture wells per condition). Asterisk indicates significant difference from relevant control (BSO alone) at ρ<0.05, using ANOVA and Student-Neuman-Keuls' test.
# as §1, §2
# cortical cell cultures [3] = assay: Zn2+ entry into cortical cells (TSQ fluorescence); type: cell-based, mouse
# Experimental: FIG. 10 is a graph plotting effects of sulfasalazine reducing Zn^2 entry into cortical cells. Sister cultures were exposed to 300 μM Zn^2+ for 30 min, alone or with inclusion of 30-300 μM sulfasalazine. Zn^2+ entry was assessed 30 min later by measuring fluorescence intensity of TSQ, a Zn^2+ chelating agent. (n=8 culture wells per condition). Asterisk indicates significant difference from relevant control (Zn^2 alone) at ρ<0.05, using ANOVA and Student-Neuman-Keuls' test.
# as §1, with “committee.” for “committee. The neocortices were gently triturated and plated on 24 well plates (5 hemispheres/plate) precoated with 100 μg/ml poly-D-lysine and 4 μg/ml laminine.”
# Entry and accumulation of Zn^2+ into neurons were analyzed using TSQ (N-(6-methoxy-8-quinolyl)-p-toluene sulfonamide), a membrane-permeable Zn^2+-chelating dye (Weiss J H, Hartley D M, Koh J Y, Choi D W, 1993, Neuron, 10:43-49). Cultures were incubated in HCSS containing 0.01% TSQ for 5 min, observed under fluorescence microscopy with a UV filter (excitation 365 nm, dichroic 400 nm, barrier 450 nm), and the intensity of TSQ was analyzed using a fluorescence plate reader.
# cortical cell cultures [4] = assay: NMDA-induced 45Ca2+ uptake; type: cell-based, mouse; details: for 45Ca2+ influx after NMDA: 300 μM NMDA, 10 min
# Experimental: FIG. 5 is a graph plotting effects of sulfasalazine against NMDA-induced ^45Ca^2+ uptake. Cortical cell cultrues (DIV 12-14) were exposed to a sham wash (control) or 300 μM NMDA, alone or in the presence of 30-1000 μM sulfasalazine. Ca^2+ influx was analyzed 10 min later by measuring ^45Ca^2+ influx, mean ± S.E.M. (n=12 cultures per condition). Asterisk indicates significant difference from relevant control (NMDA alone), at ρ<0.05 using ANOVA and Student-Neuman-Keuls' test.
# Primary cortical cell cultrues from embryonic mice were prepared and used to examine neuroprotective action of compounds. Mouse cortical cell culture system has been extensively used to study mechanisms and pharmacological intervention of neuronal death in neurological diseases. In brief, mouse cerebral coritces were removed from brains of the 15 day—old—fetal mice, in accordance with a protocol approved by our institutional animal care committee. The neocortices were gently triturated and plated on 24 well plates (5 hemispheres/plate) precoated with 100 μg/ml poly-D-lysine and 4 μg/ml laminine. Plating media consist of Eagles minimal essential media (MEM, Earles salts, supplied glutamine-free) supplemented with 5% horse serum, 5% fetal bovine serum, 2 mM glutamine, and 21 mM glucose. Cultures were maintained at 37° C. in a humidified 5% CO2 atmosphere. After 7 days in vitro (DIV 7), cultures were shifted into a growth medium identical to the plating medium but lacking fetal serum. At DIV 7-9, […] cytosine arabinofuranoside was included to halt overgrowth of glia. Mixed cultures of neurons and glia were then fed twice a week.
# To analyze Ca^2+ uptake, cortical cell cultures (DIV 13-14) were added with 300 μM NMDA and 1.5 μCi ^45Ca^2+ for 10 min, washed thoroughly with HCSS, and lysed in 0.2% SDS. Levels of ^45Ca^2+ in the lysates were read in a Beckman Scintillation counter.
# cortical cell cultures [5] = assay: Fe2+-induced production of reactive oxygen species (DCDHF fluorescence); type: cell-based, mouse
# Experimental: FIG. 8 is a graph plotting effects of sulfasalazine against Fe^2+-induced production of reactive oxygen species. Cortical cell cultures (DIV 13-14) were exposed to a sham wash (control) or 50 μM Fe^2+, alone or with 100 μM sulfasalazine for the indicated points of time. Levels of ROS in neurons were analyzed by monitoring the fluorescent signal of oxidized DCDHF, mean ± S.E.M. (n=53−80 neurons randomly chosen under a phase-contrast optic). Asterisk indicates significant difference from the relevant control (Fe^2+ alone in each time point) at ρ<0.05 using ANOVA and Student-Neuman-Keuls' test.
# Primary cortical cell cultrues from embryonic mice were prepared and used to examine neuroprotective action of compounds. […]
# To analyze reactive oxygen species in cortical cells, cortical cultures were loaded with 10 μM 6-carboxy-2′,7′-dichlorodihydrofluorescein diacetate (DCDHF-DA) plus 2% Pluronic F-127 in HCSS solution containing (120 mM NaCl, 5 mM KCl, 1.6 mM MgCl2, 2.3 mM CaCl2, 15 mM Glucose, 20 mM HEPES, 10 mM NaOH) for 20 minutes at 37° C., washed three times with HCSS solution, and the fluorescence signal of DCF (Ex 1=488 nm, Em 1=510 nm), the oxidation product of DCDHF-DA, was analyzed on the stage of a Nikon Diaphot inverted microscope equipped with a 100W Xenon lamp and a Nikon 20X, 0.4 N.A. objective.
# cortical cell cultures [6] = assay: Zn2+ neurotoxicity (LDH); type: cell-based, mouse; details: 300 μM Zn2+ for 30 min; 10-100 μM sulfasalazine concurrent
# Experimental: FIG. 9 is a graph plotting a dose-response effect of sulfasalazine against neuronal death 24 hr following exposure to 300 μM Zn^2+ for 30 min. Cortical cell cultures were exposed to 30-500 μM Zn^2+ for 30 min, alone (filled circles) or with inclusion of 100 μM sulfasalazine (open circles). Neuronal death was assessed 24 hr later by measurement of LDH released into the bathing medium, mean ± SEM (n=8 culture wells per condition). Asterisk indicates significant difference from relevant control (Zn^2+ alone) at ρ<0.05, using ANOVA and Student-Neuman-Keuls' test.
# as §1, with “committee.” for “committee. The neocortices were gently triturated and plated on 24 well plates (5 hemispheres/plate) precoated with 100 μg/ml poly-D-lysine and 4 μg/ml laminine.”
# as §2
# cortical neurons = assay: NMDA-induced accumulation of intracellular free Ca2+ (fluo-3); type: cell-based, mouse; details: 300 μM NMDA; 300 μM sulfasalazine
# Experimental: FIG. 4 is a graph plotting effects of sulfasalazine against NMDA-induced accumulation of intracellular free Ca^2+. […] [Ca^2+], was analyzed in fluo-3-loaded neutrons immediately after treatment, mean ± S.E.M. (n÷55−94 randomly chosen neurons in 4-6 glass bottom dishes per condition), scaled to [Ca^2+], after the sham control (÷100%). Asterisk indicates significant difference from relevant control (NMDA alone), at ρ<0.05 using ANOVA and Student-Neuman-Keuls' test.
# as §1
# Levels of intracellular free Ca^2+ ([Ca^2+]i) were analyzed using a Ca^2+ sensitive indicator flou-3 under a fluorescence microphotometry (Minta A. Kao J P. Tsien R Y. 1989, J Bio Chem. 264:8171-8178). […] The fluroescence images were analyzed using a QuantiCell 700 system (Applied Imaging, England).
# [7] = tested on: cocultures of mouse cortical neurons and glia; assay: NMDA-induced neuronal death (LDH efflux) in cortical cell cultures; type: cell-based; details: for NMDA neurotoxicity (neuronal death 24 hr later): 300 μM NMDA for 10 min
# Experimental: FIG. 2 is a graph plotting a dose-response effect of sulfasalazine against neuronal death 24 hr following a brief exposure to 300 μM NMDA. Cocultures of mouse cortical neurons and glia (DIV 12-14) were exposed to 300 μM NMDA for 10 min, alone or with inclusion of 10-1000 μM sulfasalazine. Neuronal death was analyzed by measuring LDH efflux into the bathing medium 24 hr later, mean ± S.E.M. (n−8−16 cultrues per condition), scaled to the mean LDH value corresponding to the near-complete neuronal death induced by 24 hr exposure to 500 μM NMDA (=100%). Asterisk indicates significant difference from relevant control (NMDA alone), at ρ<0.05 using ANOVA and Student-Neuman-Keuls' test.
# FIG. 3 is a graph plotting neuroprotective effects of sulfasalazine against dose-dependent neurotoxicity by NMDA. Cortical cell cultures were exposed to 30-1000 μM NMDA for 10 min, alone or in the presence of 300 or 1000 μM sulfasalazine. Neuronal death was analyzed by measuring LDH efflux into the bathing medium 24 hr later, mean ± S.E.M. (n=8−16 cultures per condition). Asterisk indicates significant difference from relevant control (NMDA alone), at ρ<0.05 using ANOVA and Student-Neuman-Keuls' test.
# as §1, §2
# [8] = man, 3-5 hrs after oral ingestion of a single 4 g dose; cited from earlier work
# cortical cell cultures [9] = assay: Neuronal death after oxygen and glucose deprivation (LDH); type: cell-based, mouse; details: 300 μM sulfasalazine
# Experimental: FIG. 11 is a graph plotting neuroprotective effects of sulfasalazine against deprivation of oxygen and glucose. Cortical cell cultures (DIV 14) were deprived of oxygen and glucose (OGD) for 45, 60 or 90 min, alone (black bars) or with inclusion of 300 μM sulfasalazine (gray bars). Neuronal death was assessed 24 hr later by measurement of LDH released into the bathing medium, mean ± SEM (n=4 culture wells per condition). Asterisk indicates significant difference from relevant control (OGD alone) at ρ<0.05, using ANOVA and Student-Neuman-Keuls' test.
# Primary cortical cell cultrues from embryonic mice were prepared and used to examine neuroprotective action of compounds. Mouse cortical cell culture system has been extensively used to study mechanisms and pharmacological intervention of neuronal death in neurological diseases. […]
# Oxygen or glucose deprivation: cortical cell cultures (DIV 15-17) were transferred to an anacrobic chamber containing 5% CO2, 10% H2, and 85% N2 as described before (Gwag B J, Lobner D, Koh J Y, Wie M B, and Choi D W, 1995, Neuroscience, 68:615-619). […] Neuronal injury was quantified 24 hr later.
# as §2
structure (smiles),measurement,setting,value
O=C(O)c1cc(/N=N/c2ccc(S(=O)(=O)Nc3ccccn3)cc2)ccc1O [sulfasalazine],neuronal death 24 hr following continuous exposure to Fe2+,[1],dose-dependently reduced
same,neuronal death 24 hr following continuous exposure to BSO,[2],dose-dependently reduced
same,Zn2+ entry,"cortical cell cultures [3]; 300 μM Zn2+ for 30 min, 300 μM sulfasalazine",slightly but significantly reduced
same,doses preventing influx and accumulation of Zn2+,cortical cell cultures [3]; summary statement,"30-1,000 μM"
same,45Ca2+ influx after NMDA,cortical cell cultures [4]; 300 μM sulfasalazine,partially reduced
same,45Ca2+ influx after NMDA,cortical cell cultures [4]; 1000 μM sulfasalazine,completely blocked
same,doses preventing influx and accumulation of Ca2+,cortical cell cultures [4]; summary statement,"30-1,000 μM"
same,production of ROS following exposure to Fe2+,"cortical cell cultures [5]; 50 μM Fe2+, 100 μM sulfasalazine",reduced production of ROS
same,doses scavenging reactive oxygen species,cortical cell cultures [5]; summary statement,3 to 100 µM
same,Zn2+ neurotoxicity,cortical cell cultures [6],reduced Zn^2+ neurotoxicity in a dose-dependent manner
same,NMDA-induced accumulation of [Ca2+]i,cortical neurons,markedly reduced
same,NMDA neurotoxicity (neuronal death 24 hr later),[7]; 1 mM sulfasalazine,completely blocked
same,NMDA neurotoxicity (neuronal death 24 hr later),[7]; 100-300 μM sulfasalazine concurrent,partially reduced
same,neuroprotective effects with increasing doses of NMDA,"[7]; NMDA up to 1 mM for 10 min, 300 or 1000 μM sulfasalazine",did not interfere with the neuroprotective effects
same,serum concentrations,[8],approximately 500 μM
same,neuroprotective effects after prolonged deprivation of oxygen and glucose,cortical cell cultures [9]; OGD extended to 90 min,decreased
same,neuronal death following deprivation of oxygen and glucose,cortical cell cultures [9]; OGD for 45-60 min,markedly reduced
